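Where inhibition never reached the appropriate level, the endpoint shown equals the highest concentration tested. Otherwise, values were interpolated linearly from a five-concentration, 48-hour dose response in 96-well plates. GI50 marks 50% less growth. TGI is the concentration that stops growth completely.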
What was measured:
Assay in all cases: growth of human tumour cells (NCI), 48 h
OVCAR-8 ovarian = tested on: OVCAR-8 ovarian
NCI/ADR-RES ovarian = tested on: NCI/ADR-RES ovarian
SK-MEL-2 melanoma = tested on: SK-MEL-2 melanoma
IGROV1 ovarian = tested on: IGROV1 ovarian
UO-31 renal = tested on: UO-31 renal
KM12 colon = tested on: KM12 colon
MOLT-4 leukemia = tested on: MOLT-4 leukemia
A549 NSCLC = tested on: A549 NSCLC
NCI-H23 lung = tested on: NCI-H23 lung
SF-539 CNS = tested on: SF-539 CNS
K-562 leukemia = tested on: K-562 leukemia
SNB-19 CNS = tested on: SNB-19 CNS
HCT-15 colon = tested on: HCT-15 colon
HS 578T breast = tested on: HS 578T breast
U251 CNS = tested on: U251 CNS
HCT-116 colon = tested on: HCT-116 colon
OVCAR-3 ovarian = tested on: OVCAR-3 ovarian
EKVX NSCLC = tested on: EKVX NSCLC
OVCAR-5 ovarian = tested on: OVCAR-5 ovarian
SR leukemia = tested on: SR leukemia
786-0 renal = tested on: 786-0 renal
UACC-62 melanoma = tested on: UACC-62 melanoma
NCI-H522 lung = tested on: NCI-H522 lung
MDA-N = tested on: MDA-N
HL-60(TB) leukemia = tested on: HL-60(TB) leukemia
SF-268 CNS = tested on: SF-268 CNS
SN12C renal = tested on: SN12C renal
NCI-H226 lung = tested on: NCI-H226 lung
HT29 colon = tested on: HT29 colon
MDA-MB-231 breast = tested on: MDA-MB-231 breast
HCC-2998 colon = tested on: HCC-2998 colon
CAKI-1 renal = tested on: CAKI-1 renal
PC-3 prostate = tested on: PC-3 prostate
ACHN renal = tested on: ACHN renal
RPMI-8226 leukemia = tested on: RPMI-8226 leukemia
SW-620 colon = tested on: SW-620 colon
NCI-H460 lung = tested on: NCI-H460 lung
SK-MEL-28 melanoma = tested on: SK-MEL-28 melanoma
A498 renal = tested on: A498 renal
HOP-62 NSCLC = tested on: HOP-62 NSCLC
SK-MEL-5 melanoma = tested on: SK-MEL-5 melanoma
MDA-MB-435 = tested on: MDA-MB-435
T-47D breast = tested on: T-47D breast
RXF 393 renal = tested on: RXF 393 renal
TK-10 renal = tested on: TK-10 renal
MALME-3M melanoma = tested on: MALME-3M melanoma
COLO 205 colon = tested on: COLO 205 colon
CCRF-CEM leukemia = tested on: CCRF-CEM leukemia
DU-145 prostate = tested on: DU-145 prostate
SK-OV-3 ovarian = tested on: SK-OV-3 ovarian
LOX IMVI melanoma = tested on: LOX IMVI melanoma
HOP-92 NSCLC = tested on: HOP-92 NSCLC
UACC-257 melanoma = tested on: UACC-257 melanoma
SF-295 CNS = tested on: SF-295 CNS
BT-549 breast = tested on: BT-549 breast
OVCAR-4 ovarian = tested on: OVCAR-4 ovarian
MCF7 breast = tested on: MCF7 breast
SNB-75 CNS = tested on: SNB-75 CNS
M14 melanoma = tested on: M14 melanoma

CNC(=S)/C(C#N)=C(\N)N1CCCC1
TGI (OVCAR-8 ovarian): > 100 µM
TGI (NCI/ADR-RES ovarian): > 100 µM
TGI (SK-MEL-2 melanoma): > 100 µM
TGI (IGROV1 ovarian): > 100 µM
TGI (UO-31 renal): > 100 µM
TGI (KM12 colon): > 100 µM
TGI (MOLT-4 leukemia): > 100 µM
TGI (A549 NSCLC): > 100 µM
TGI (NCI-H23 lung): > 100 µM
TGI (SF-539 CNS): > 100 µM
TGI (K-562 leukemia): > 100 µM
TGI (SNB-19 CNS): > 100 µM
TGI (HCT-15 colon): > 100 µM
TGI (HS 578T breast): > 100 µM
TGI (U251 CNS): > 100 µM
TGI (HCT-116 colon): > 100 µM
TGI (OVCAR-3 ovarian): > 100 µM
TGI (EKVX NSCLC): > 100 µM
TGI (OVCAR-5 ovarian): > 100 µM
TGI (SR leukemia): > 100 µM
TGI (786-0 renal): > 100 µM
TGI (UACC-62 melanoma): > 100 µM
TGI (NCI-H522 lung): > 100 µM
TGI (MDA-N): > 100 µM
TGI (HL-60(TB) leukemia): > 100 µM
TGI (SF-268 CNS): > 100 µM
TGI (SN12C renal): > 100 µM
TGI (NCI-H226 lung): > 100 µM
TGI (HT29 colon): > 100 µM
TGI (MDA-MB-231 breast): > 100 µM
TGI (HCC-2998 colon): > 100 µM
TGI (CAKI-1 renal): > 100 µM
TGI (PC-3 prostate): > 100 µM
TGI (ACHN renal): > 100 µM
TGI (RPMI-8226 leukemia): > 100 µM
TGI (SW-620 colon): > 100 µM
TGI (NCI-H460 lung): > 100 µM
TGI (SK-MEL-28 melanoma): > 100 µM
TGI (A498 renal): > 100 µM
TGI (HOP-62 NSCLC): > 100 µM
TGI (SK-MEL-5 melanoma): > 100 µM
TGI (MDA-MB-435): > 100 µM
TGI (T-47D breast): > 100 µM
TGI (RXF 393 renal): > 100 µM
TGI (TK-10 renal): > 100 µM
TGI (MALME-3M melanoma): > 100 µM
TGI (COLO 205 colon): > 100 µM
TGI (CCRF-CEM leukemia): > 100 µM
TGI (DU-145 prostate): > 100 µM
TGI (SK-OV-3 ovarian): > 100 µM

CN1CCN(CCCOc2cccc3nc(Nc4ccc(F)c(F)c4)ccc23)CC1
GI50 (OVCAR-8 ovarian): 5.13 µM
TGI (OVCAR-8 ovarian): 10.2 µM
GI50 (NCI/ADR-RES ovarian): 5.16 µM
TGI (NCI/ADR-RES ovarian): 10.5 µM
GI50 (SK-MEL-2 melanoma): 3.95 µM
TGI (SK-MEL-2 melanoma): 8.62 µM
GI50 (IGROV1 ovarian): 5.55 µM
TGI (IGROV1 ovarian): 11.4 µM
GI50 (UO-31 renal): 4.34 µM
TGI (UO-31 renal): 9.01 µM
GI50 (LOX IMVI melanoma): 1.03 µM
TGI (LOX IMVI melanoma): 3.36 µM
GI50 (KM12 colon): 2.35 µM
TGI (KM12 colon): 7.78 µM
GI50 (MOLT-4 leukemia): 1.31 µM
TGI (MOLT-4 leukemia): 5.66 µM
GI50 (A549 NSCLC): 3.5 µM
TGI (A549 NSCLC): 8.15 µM
GI50 (NCI-H23 lung): 4.67 µM
TGI (NCI-H23 lung): 9.29 µM
GI50 (HOP-92 NSCLC): 1.43 µM
TGI (HOP-92 NSCLC): 5.74 µM
GI50 (SF-539 CNS): 4.03 µM
TGI (SF-539 CNS): 8.56 µM
GI50 (K-562 leukemia): 0.662 µM
TGI (K-562 leukemia): 1.49 µM
GI50 (SNB-19 CNS): 4.89 µM
TGI (SNB-19 CNS): 10.2 µM
GI50 (HCT-15 colon): 0.956 µM
TGI (HCT-15 colon): 3.42 µM
GI50 (HS 578T breast): 4.73 µM
TGI (HS 578T breast): 11.8 µM
GI50 (U251 CNS): 2.68 µM
TGI (U251 CNS): 7.2 µM
GI50 (HCT-116 colon): 3.8 µM
TGI (HCT-116 colon): 7.87 µM
GI50 (OVCAR-3 ovarian): 4.58 µM
TGI (OVCAR-3 ovarian): 9.51 µM
GI50 (EKVX NSCLC): 4.83 µM
TGI (EKVX NSCLC): 9.41 µM
GI50 (OVCAR-5 ovarian): 4.71 µM
TGI (OVCAR-5 ovarian): 9.73 µM
GI50 (SR leukemia): 0.87 µM
TGI (SR leukemia): 4.07 µM
GI50 (786-0 renal): 4.66 µM
TGI (786-0 renal): 9.25 µM
GI50 (UACC-62 melanoma): 0.695 µM
TGI (UACC-62 melanoma): 1.6 µM
GI50 (NCI-H522 lung): 1.01 µM
TGI (NCI-H522 lung): 3.69 µM
GI50 (UACC-257 melanoma): 0.655 µM
TGI (UACC-257 melanoma): 1.39 µM
GI50 (HL-60(TB) leukemia): 5.18 µM
TGI (HL-60(TB) leukemia): 11 µM
GI50 (SF-295 CNS): 4.64 µM
TGI (SF-295 CNS): 9.3 µM
GI50 (SF-268 CNS): 4.46 µM
TGI (SF-268 CNS): 9.74 µM
GI50 (SN12C renal): 4.87 µM
TGI (SN12C renal): 9.93 µM
GI50 (BT-549 breast): 4.34 µM
TGI (BT-549 breast): 8.85 µM
GI50 (NCI-H226 lung): 5.51 µM
TGI (NCI-H226 lung): 11.1 µM
GI50 (HT29 colon): 0.616 µM
TGI (HT29 colon): 1.35 µM
GI50 (MDA-MB-231 breast): 0.937 µM
TGI (MDA-MB-231 breast): 3.38 µM
GI50 (HCC-2998 colon): 4.56 µM
TGI (HCC-2998 colon): 9.08 µM
GI50 (CAKI-1 renal): 4.45 µM
TGI (CAKI-1 renal): 9.35 µM
GI50 (PC-3 prostate): 3.83 µM
TGI (PC-3 prostate): 8.43 µM
GI50 (ACHN renal): 4.57 µM
TGI (ACHN renal): 9.17 µM
GI50 (OVCAR-4 ovarian): 6.42 µM
TGI (OVCAR-4 ovarian): 15.2 µM
GI50 (RPMI-8226 leukemia): 5.2 µM
TGI (RPMI-8226 leukemia): 12.3 µM
GI50 (SW-620 colon): 1.82 µM
TGI (SW-620 colon): 10.5 µM
GI50 (NCI-H460 lung): 2.37 µM
TGI (NCI-H460 lung): 8.9 µM
GI50 (MCF7 breast): 3.33 µM
TGI (MCF7 breast): 7.88 µM
GI50 (SK-MEL-28 melanoma): 1.08 µM
TGI (SK-MEL-28 melanoma): 3.63 µM
GI50 (A498 renal): 5.65 µM
TGI (A498 renal): 11.6 µM
GI50 (HOP-62 NSCLC): 1.25 µM
TGI (HOP-62 NSCLC): 5.34 µM
GI50 (SK-MEL-5 melanoma): 4.44 µM
TGI (SK-MEL-5 melanoma): 8.69 µM
GI50 (SNB-75 CNS): 3.92 µM
TGI (SNB-75 CNS): 9.5 µM
GI50 (MDA-MB-435): 1.27 µM
TGI (MDA-MB-435): 5.14 µM
GI50 (T-47D breast): 3.39 µM
TGI (T-47D breast): 9.26 µM
GI50 (RXF 393 renal): 2.11 µM
TGI (RXF 393 renal): 6.57 µM
GI50 (TK-10 renal): 2.63 µM
TGI (TK-10 renal): 6.94 µM
GI50 (MALME-3M melanoma): 1.44 µM
TGI (MALME-3M melanoma): 6.05 µM
GI50 (M14 melanoma): 0.68 µM
TGI (M14 melanoma): 1.49 µM
GI50 (COLO 205 colon): 0.646 µM
TGI (COLO 205 colon): 1.33 µM
GI50 (CCRF-CEM leukemia): 2.42 µM
TGI (CCRF-CEM leukemia): 8.06 µM
GI50 (DU-145 prostate): 4.32 µM
TGI (DU-145 prostate): 8.67 µM
GI50 (SK-OV-3 ovarian): 4.39 µM
TGI (SK-OV-3 ovarian): 8.87 µM

Reference: PubChem BioAssay (NCI)
